Reference: patent publication EP4741390A1, “BIARYL RING COMPOUND, INTERMEDIATE THEREOF, PREPARATION METHOD THEREFOR AND USE THEREOF” (Hangzhou Synrx Therapeutics Biomedical Technology Co., Ltd., priority 2023, dated 2025)
Like-named read-outs stand apart in the source and are kept apart here.

Key:
DLD1 wild type = assay: Cell viability assay (CTG assay), DLD1 wild type cells; format: cell-based; settings: Homo sapiens, DLD-1, 240 h; CellTiter Glo, read on Day 10, initial concentration 30 µM
Protocol: (§1) 2. Cell Viability Assay of Pol θ Inhibitor
(§2) The cell viability assay, i.e., the commonly used CTG assay, was conducted for the efficacy of the inhibitor in vitro using the CellTiter Glo reagent (Promega, G7573).

DLD1 BRCA2-/- cells = assay: Cell viability assay (CTG assay), DLD1 BRCA2-/- cells; format: cell-based; settings: Homo sapiens, DLD-1, 240 h; CellTiter Glo, read on Day 10, initial concentration 30 µM
Protocol: as §1, §2

[1] = target: helicase domain of the Pol θ protein (Homo sapiens, UniProt O75417); format: biochemical
Protocol: Biochemical Activity Assay (ADP Glo Assay) of Pol θ Inhibitor
The specific assay method was as follows: • 1) The helicase domain of the Pol θ protein was purified by an insect system, to obtain the protein with a purity of >90%. ssDNA (5'-[sequence]-3', Hangzhou Yocon Biotechnology Co., Ltd.) was ordered as the substrate for the Pol θ protein; and a reaction buffer containing 10 mM DTT (Dithiothreitol), 20 mM MgCl2 and Tris-HCl pH 7.5 was prepared. • 2) The 2x ssDNA-Pol θ premix was prepared; the reaction was conducted in a 384-well plate; a control group with only buffer is set, and the premix was added to the rest of the groups.

[2] = ATPase activity, ADP-Glo, ssDNA substrate, 60 min at room temperature, initial concentration 10 µM, read-out: Biochemical experiment IC50

Chain of helicase domain of the Pol θ protein (O75417 102-554 limits assumed): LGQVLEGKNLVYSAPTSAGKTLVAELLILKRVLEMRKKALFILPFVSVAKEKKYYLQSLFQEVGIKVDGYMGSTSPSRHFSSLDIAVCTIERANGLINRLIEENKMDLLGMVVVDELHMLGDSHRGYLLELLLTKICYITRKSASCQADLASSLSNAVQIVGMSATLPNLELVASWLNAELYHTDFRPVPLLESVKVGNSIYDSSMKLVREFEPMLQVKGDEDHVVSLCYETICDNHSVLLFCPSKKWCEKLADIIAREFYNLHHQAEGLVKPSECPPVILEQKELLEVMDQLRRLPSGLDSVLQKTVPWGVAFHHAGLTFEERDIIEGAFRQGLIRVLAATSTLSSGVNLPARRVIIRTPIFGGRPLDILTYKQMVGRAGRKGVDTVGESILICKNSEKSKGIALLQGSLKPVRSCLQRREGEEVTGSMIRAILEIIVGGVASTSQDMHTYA

| IC50 [1, 2] [nM] | Structure (SMILES) | IC50 (DLD1 wild type) [nM] | IC50 (DLD1 BRCA2-/- cells) [nM] | IC50 [1] [nM] |
| --- | --- | --- | --- | --- |
|  | COc1cnc(C(F)F)cc1-c1cc(-n2cccc(F)c2=O)ncc1C(=O)Nc1nc(-c2ccc(Cl)cc2)ns1 [Example 23] | > 50000 | 185 | 170 |
|  | COc1cnc(C(F)F)cc1-c1cc(-n2cccc(F)c2=O)ncc1C(=O)Nc1nc(N2CCOCC2)ns1 [Example 24] | > 5000 | 15.3 | 20.3 |
|  | COc1cnc(C(F)F)cc1-c1cc(-n2cccc(F)c2=O)ncc1C(=O)Nc1nc(N2CC3(COC3)C2)ns1 [Example 25, N-(3-(2-oxa-6-azaspiro[3.3]heptan-6-yl)-1,2,4-thiadiazol-5-yl)-2"-(difluoromethyl)-3-fluoro-5"-methoxy-2-oxo-2H-[1,2':4',4"-bipyridin]-5'-carboxamide] | > 5000 | 242 | 42.3 |
| 2.29 | COc1cnc(Cl)cc1-c1cc(-n2cccc(F)c2=O)ncc1C(=O)Nc1nc(-c2c(C)cnn2C)ns1 [Example 26, 2"-chloro-N-(3-(1,4-dimethyl-1H-pyrazol-5-yl)-1,2,4-thiadiazol-5-yl)-3-fluoro-5"-methoxy-2-oxo-2H-[1,2':4',4"-terpyridin]-5'-carboxamide] | > 5000 | 0.82 |  |
| 11 | COc1cnc(C(F)F)cc1-c1cc(-n2cccc(F)c2=O)ncc1C(=O)Nc1nc(N2CC3CC3C2)ns1 (stereo not drawn) [Example 28, N-(3-(3-azabicyclo[3,1,0]hex-3-yl)-1,2,4-thiadiazol-5-yl)-2"-(difluoromethyl)-3-fluoro-5"-methoxy-2-oxo-2H-[1,2':4',4"-terpyridin]-5'-carboxamide] | > 5000 | 24.2 |  |
| 6.11 | COc1cnc(C(F)F)cc1-c1cc(-n2cccc(F)c2=O)ncc1C(=O)Nc1nc(-c2c(C)ncn2C)ns1 [Example 32, 2"-(difluoromethyl)-N-(3-(1,4-dimethyl-1H-imidazol-5-yl)-1,2,4-thiadiazol-5-yl)-3-fluoro-5"-methoxy-2-oxo-2H-[1,2':4',4"-terpyridin]-5'-carboxamide] | > 5000 | 13.1 |  |
|  | COc1cnc(C(F)F)cc1-c1cc(-n2cccc(F)c2=O)ncc1C(=O)Nc1nc(C2CCC2)ns1 [Example 33, N-(3-cyclobutyl-1,2,4-thiadiazol-5-yl)-2"-(difluoromethyl)-3-fluoro-5"-methoxy-2-oxo-2H-[1,2":4'4"-bipyridin]-5'-carboxamide] | > 5000 | 8.57 | 4.11 |
